Laboratory results as given in the NIST ThermoML archive (doi:10.1021/je050169y).
± gives the expanded uncertainty stated by the source.

What was measured:
[1] = 101 kPa, Liquid
[2] = xn = mol fraction of the nth substance listed; conditions: 101 kPa, Liquid

CCCCO [butan-1-ol]
[1]
Conditions	mass density [kg/m3]	speed of sound [m/s]	viscosity [mPa·s]
303.15 K	802.31 ± 0.86	1227 ± 4	2.274 ± 0.054
313.15 K	794.37 ± 0.89	1193 ± 3	1.783 ± 0.043

CCCCO [butan-1-ol] + ClC(Cl)Cl
[2], x2 = 0
Conditions	mass density [kg/m3]	speed of sound [m/s]	viscosity [mPa·s]
303.15 K	802.31 ± 0.86	1227 ± 4	2.274 ± 0.054
313.15 K	794.37 ± 0.89	1193 ± 3	1.783 ± 0.043

CCCO [propan-1-ol]
[1]
Conditions	mass density [kg/m3]	speed of sound [m/s]	viscosity [mPa·s]
303.15 K	796.66 ± 0.8	1193 ± 3	1.719 ± 0.041
313.15 K	788.31 ± 0.83	1159 ± 3	1.363 ± 0.033

CCCO [propan-1-ol] + ClC(Cl)Cl
[2], x2 = 0
Conditions	mass density [kg/m3]	speed of sound [m/s]	viscosity [mPa·s]
303.15 K	796.66 ± 0.8	1193 ± 3	1.719 ± 0.041
313.15 K	788.31 ± 0.83	1159 ± 3	1.363 ± 0.033

ClC(Cl)Cl [trichloromethane]
[1]
Conditions	mass density [kg/m3]	speed of sound [m/s]	viscosity [mPa·s]
303.15 K	1469.21 ± 1.9	969 ± 3	0.534 ± 0.015
313.15 K	1449.74 ± 1.9	934 ± 3	0.491 ± 0.014

ClC(Cl)Cl [trichloromethane] + CCCCO
[2]
Conditions	mass density, 303.15 K [kg/m3]	mass density, 313.15 K [kg/m3]	speed of sound, 303.15 K [m/s]	speed of sound, 313.15 K [m/s]	viscosity, 303.15 K [mPa·s]	viscosity, 313.15 K [mPa·s]
x1 = 0.0512	–	823.95 ± 0.93	–	1172 ± 3	–	1.67 ± 0.041
x1 = 0.0513	832.44 ± 0.91	–	1207 ± 4	–	2.125 ± 0.051	–
x1 = 0.0999	861.44 ± 0.95	–	1189 ± 3	–	1.989 ± 0.048	–
x1 = 0.1	–	852.45 ± 0.97	–	1154 ± 3	–	1.566 ± 0.039
x1 = 0.149	890.91 ± 1	881.47 ± 1	1170 ± 3	1135 ± 3	1.829 ± 0.044	1.45 ± 0.036
x1 = 0.2009	922.47 ± 1.1	912.53 ± 1.1	1152 ± 3	1116 ± 3	1.683 ± 0.041	1.341 ± 0.033
x1 = 0.2506	953.06 ± 1.1	942.58 ± 1.1	1134 ± 3	1098 ± 3	1.531 ± 0.037	1.23 ± 0.031
x1 = 0.2999	983.75 ± 1.1	972.85 ± 1.2	1118 ± 3	1081 ± 3	1.394 ± 0.034	1.136 ± 0.029
x1 = 0.3659	1025.5 ± 1.2	1013.85 ± 1.2	1097 ± 3	1060 ± 3	1.224 ± 0.03	1.018 ± 0.026
x1 = 0.407	1051.86 ± 1.3	1039.75 ± 1.3	1084 ± 3	1047 ± 3	1.137 ± 0.028	0.943 ± 0.024
x1 = 0.4515	1080.69 ± 1.3	1067.95 ± 1.3	1071 ± 3	1034 ± 3	1.045 ± 0.026	0.878 ± 0.023
x1 = 0.4997	1112.25 ± 1.4	1099 ± 1.4	1056 ± 3	1019 ± 3	0.96 ± 0.024	0.82 ± 0.021
x1 = 0.5502	1145.88 ± 1.4	1132.03 ± 1.4	1043 ± 3	1006 ± 3	0.877 ± 0.023	0.758 ± 0.02
x1 = 0.6011	1180.26 ± 1.5	–	1030 ± 3	–	0.82 ± 0.021	–
x1 = 0.6012	–	1165.78 ± 1.5	–	993 ± 3	–	0.712 ± 0.019
x1 = 0.6527	1215.51 ± 1.5	1200.35 ± 1.5	1018 ± 3	981 ± 3	0.754 ± 0.02	0.671 ± 0.018
x1 = 0.702	1249.87 ± 1.6	–	1007 ± 3	–	0.709 ± 0.019	–
x1 = 0.7021	–	1234 ± 1.6	–	970 ± 3	–	0.633 ± 0.017
x1 = 0.7519	1285.1 ± 1.6	1268.52 ± 1.6	997 ± 3	961 ± 3	0.676 ± 0.018	0.615 ± 0.017
x1 = 0.802	1320.98 ± 1.7	–	989 ± 3	–	0.636 ± 0.017	–
x1 = 0.8021	–	1303.85 ± 1.7	–	952 ± 3	–	0.579 ± 0.016
x1 = 0.8517	1357.17 ± 1.7	–	981 ± 3	–	0.622 ± 0.017	–
x1 = 0.8518	–	1339.4 ± 1.7	–	945 ± 3	–	0.572 ± 0.016
x1 = 0.9023	1394.7 ± 1.8	–	975 ± 3	–	0.587 ± 0.016	–
x1 = 0.9024	–	1376.18 ± 1.8	–	939 ± 3	–	0.547 ± 0.015
x1 = 0.9509	1431.43 ± 1.8	–	971 ± 3	–	0.569 ± 0.016	–
x1 = 0.951	–	1412.42 ± 1.8	–	936 ± 3	–	0.524 ± 0.015
x1 = 1	1469.21 ± 1.9	1449.74 ± 1.9	969 ± 3	934 ± 3	0.534 ± 0.015	0.491 ± 0.014

ClC(Cl)Cl [trichloromethane] + CCCO
[2]
Conditions	mass density, 303.15 K [kg/m3]	mass density, 313.15 K [kg/m3]	speed of sound, 303.15 K [m/s]	speed of sound, 313.15 K [m/s]	viscosity, 303.15 K [mPa·s]	viscosity, 313.15 K [mPa·s]
x1 = 0.0521	834.23 ± 0.85	825.28 ± 0.89	1171 ± 3	1136 ± 3	1.628 ± 0.039	1.302 ± 0.032
x1 = 0.0996	868.17 ± 0.9	858.68 ± 0.94	1153 ± 3	1117 ± 3	1.541 ± 0.037	1.243 ± 0.031
x1 = 0.1504	904.1 ± 0.96	894.03 ± 1	1134 ± 3	1098 ± 3	1.435 ± 0.035	1.163 ± 0.029
x1 = 0.201	939.51 ± 1	928.92 ± 1.1	1116 ± 3	1080 ± 3	1.331 ± 0.032	1.077 ± 0.027
x1 = 0.2498	973.47 ± 1.1	962.29 ± 1.1	1100 ± 3	1064 ± 3	1.233 ± 0.03	1.013 ± 0.026
x1 = 0.3057	1011.95 ± 1.1	1000.09 ± 1.2	1083 ± 3	1047 ± 3	1.113 ± 0.028	0.919 ± 0.023
x1 = 0.3499	1042.15 ± 1.2	1029.85 ± 1.2	1070 ± 3	1034 ± 3	1.044 ± 0.026	0.872 ± 0.022
x1 = 0.4031	1078.28 ± 1.2	1065.26 ± 1.3	1056 ± 3	1018 ± 3	0.956 ± 0.024	0.811 ± 0.021
x1 = 0.451	1110.46 ± 1.3	1097 ± 1.3	1042 ± 3	1006 ± 3	0.884 ± 0.023	0.752 ± 0.02
x1 = 0.5056	1147.02 ± 1.4	1132.88 ± 1.4	1028 ± 3	992 ± 3	0.813 ± 0.021	0.703 ± 0.019
x1 = 0.5541	1179.18 ± 1.4	1164.5 ± 1.4	1017 ± 3	981 ± 3	0.76 ± 0.02	0.662 ± 0.018
x1 = 0.5994	1209.1 ± 1.5	1193.91 ± 1.5	1007 ± 3	972 ± 3	0.723 ± 0.019	0.635 ± 0.017
x1 = 0.6511	1243.11 ± 1.5	1227.27 ± 1.5	997 ± 3	961 ± 3	0.68 ± 0.018	0.605 ± 0.016
x1 = 0.7033	1277.26 ± 1.6	1260.87 ± 1.6	988 ± 3	951 ± 3	0.654 ± 0.018	0.592 ± 0.016
x1 = 0.7506	1308.1 ± 1.6	1291.08 ± 1.6	980 ± 3	944 ± 3	0.629 ± 0.017	0.57 ± 0.016
x1 = 0.8	1340.17 ± 1.7	1322.66 ± 1.7	974 ± 3	939 ± 3	0.608 ± 0.017	0.558 ± 0.015
x1 = 0.8507	1373.01 ± 1.7	1354.88 ± 1.8	970 ± 3	933 ± 3	0.596 ± 0.016	0.547 ± 0.015
x1 = 0.9001	1404.92 ± 1.8	1386.24 ± 1.8	967 ± 3	931 ± 3	0.579 ± 0.016	0.531 ± 0.015
x1 = 0.9484	1436.03 ± 1.8	1416.96 ± 1.9	966 ± 3	931 ± 3	0.562 ± 0.016	0.517 ± 0.015
x1 = 1	1469.21 ± 1.9	1449.74 ± 1.9	969 ± 3	934 ± 3	0.534 ± 0.015	0.491 ± 0.014
